Where two headings read alike, the source gives them in different places. Values belong to the compound of their own block, whether it stands above or below them.
Key:
[1] = Stain bleaching, visual assessment of stained cloths after tergotometer wash (Example V); conditions: for Ranking: score 1 smallest, 4 greatest cleaning benefit, peroxyacid 9.2x10^-4 mol l^-1, 40°C, 30 minutes
[2] = pKa determination by sodium hydroxide titration of peroxyacid solution
[3] = peroxyacid solution 0.000525 moles/l plus EDTA, 22-24°C, 30 minutes
[4] = physchem
[5] = Dye damage in tergotometer wash at pH 9 (Example VII), diacetate; conditions: diacetate dyed with CI disperse 14; pH 9, 40°C, 30 minutes, peroxyacid 9.2x10^-4 mole/l
[6] = Dye damage in tergotometer wash at pH 9 (Example VII), triacetate; conditions: triacetate dyed with CI disperse 14; pH 9, 40°C, 30 minutes, peroxyacid 9.2x10^-4 mole/l
[7] = Dye damage in tergotometer wash at pH 9 (Example VII), nylon 6,6; conditions: nylon 6,6 dyed with CI disperse 14; pH 9, 40°C, 30 minutes, peroxyacid 9.2x10^-4 mole/l
[8] = Dye damage in tergotometer wash with detergent base at pH 6 to 10 (Example III); conditions: peroxyacid 9.2x10^-4 mole/l, detergent base 4 g/l, 40°C, 30 minutes
[9] = Tea stain bleaching, difference in reflectance at 460 nm before and after washing (Example VI); conditions: 40°C, 30 minutes
Description: The stain bleaching performance was measured by determining the difference ([…]) in %reflectance of cloths at 460 nm before and after washing. […] This was carried out in a tergotometer at 40°C, washing for 30 minutes. Cloths were washed in 450 ml 18°FH water with 1.8 g NSPA base powder and peroxyacid included at 9.2x10^-4 mol l^-1. Two series of experiments were carried out; one at pH 6 where the peracid is largely in its undissociated form and one above the peracid pKa, at pH 9. A stained piece of fabric measuring 8x8 cm was cut into four such that each quarter would be washed under one of each of the four experimental conditions. The method as in example V was used in determining the tea stain bleaching effect of sterically hindered hydrophobic peroxyacids, the differences being that 3 replicates were used, the reflectance was measured before and after washing, tests were done over a pH range of from 6 to 10 and 4 g/l NSPA base powder was used.

SMILES: O=C(OO)C1CC2CCC1C2 (centres unmarked) [NBC, Norbornane 2-peroxyacid]
Ranking ([1]; Washes at pH 9): 2 | Ranking ([1]; Washes pH 6): 2

SMILES: CC1C2CCC(C2)C1C(=O)OO (stereo not drawn) [Trans-3-Methyl norbornane-endo-2-percaboxylic]
pKa [2]: 8.15 | % dye damage [3]: 8.2%

SMILES: O=C(OO)C1CC2CCC1C2 (stereo not drawn) [Norbornane-endo-2-Percarboxylic]
pKa [2]: 8.15 | % dye damage [3]: 7.0%

SMILES: CC1(C(=O)OO)CC2CCC1C2 (stereo not drawn) [2 methylnorbornane-endo-2-percaboxylic]
pKa [2]: 8.2 | % dye damage [3]: 5.6%

SMILES: O=C(OO)C12CC3CC(CC(C3)C1)C2 [Peradamantoic, Peradamantoic acid]
Ranking ([1]; Washes at pH 9): 4 | Ranking ([1]; Washes pH 6): 4 | removal of the stain ([1]; black biro stain, both at pH 6 and 9): almost complete removal of the stain | pKa [2]: 7.95 | TEA STAIN BLEACHING ΔR460NM ([9]; pH 6, 4 g/l NSPA base powder): 13.2 | TEA STAIN BLEACHING ΔR460NM ([9]; pH 7, 4 g/l NSPA base powder): 16.9 | TEA STAIN BLEACHING ΔR460NM ([9]; pH 8, 4 g/l NSPA base powder): 17.3 | TEA STAIN BLEACHING ΔR460NM ([9]; pH 9, 4 g/l NSPA base powder): 13.1 | TEA STAIN BLEACHING ΔR460NM ([9]; pH 10, 4 g/l NSPA base powder): 3.6 | % dye damage [3]: 11.2%

The next lines start with results.

pKa [2]: 8
SMILES: CCCCc1ccc(C(=O)OO)cc1 [p-bu^n perbenzoic, reference compound]
% dye damage [3]: 39.6%

pKa [4]: 7.98
SMILES: CC(C)(C)c1ccc(C(=O)OO)cc1 [p-bu^t perbenzoic, p-t-butylperbenzoic acid]
% dye damage [3]: 19.6%

pKa [2]: 8.1
SMILES: CC(CC(=O)OO)CC(C)(C)C (centres unmarked) [iso-pernonanoic, peroxy-3,5,5-trimethylhexanoic acid]
% dye damage [5]: 25% | % dye damage [6]: 23% | % dye damage [7]: 11%

pKa [2]: 8.1
SMILES: CCCCCCCCC(=O)OO [n-pernonanoic, n-pernonanoic acid]
% dye damage [5]: 82% | % dye damage [6]: 85% | % dye damage [7]: 52% | % DYE DAMAGE ([8]; pH 6): 70.4% | % DYE DAMAGE ([8]; pH 7): 67.9% | % DYE DAMAGE ([8]; pH 8): 63.7% | % DYE DAMAGE ([8]; pH 9): 37.2% | % DYE DAMAGE ([8]; pH 10): 15.0%

Source: EP0588622B1, “Bleach composition” (UNILEVER PLC, priority 1992, dated 1994)
